# US20250345383A1, “INTRANASAL ADMINISTRATION OF POLYSULFIDE” (The General Hospital Corporation, priority 2022, published 2025)
# Tests used:
# [1] = test system: mice subjected to SCI; experiment: Mouse model of spinal cord ischemia (SCI): delayed paraplegia, hindlimb motor function by Basso mouse scale (BMS); assay type: in vivo
# Source text: Adult C57BL/6J mice (12-18 weeks old) of both sexes were purchased from Jackson Laboratory (Bar Harbor, ME, USA). Both male and female mice were used in experiments to investigate the neuroprotective effect of GSSSG on motor function after SCI. […] All mice were housed in a temperature and humidity-controlled room in the animal center with a 12-hour light/dark cycle, and were provided with food and water ab libitum. To permit access by mice that were recovering from surgery, additional food pellets were inserted into hydrated gel placed on the bedding. A randomized paired design was used to minimize the variability between each treatment group. Mice were paired based on weight, age, delivery dates, and when possible, holding cages. After the pairing, mice were randomly assigned to different treatments.
# The surgical procedures to produce delayed paraplegia in mice were performed as previously described^6 (FIG. 2A). Mice were anesthetized with 5% isoflurane in 100% O2 and tracheally intubated with a 20-gauge catheter (Angiocath; Becton Dickinson, Franklin Lakes, NJ, USA). […] The paravertebral muscle temperature was measured using a T-type implantable thermocouple probe (IT-18) and a T-type pod (ADInstruments, Colorado Springs, CO, USA). […] A median sternotomy extended from the apex of the manubrium to the second rib. The aortic arch was gently isolated between the left common carotid artery (LCCA) and the left subclavian artery (LSA), avoiding the vagus nerve and the left recurrent laryngeal nerve. […] After ischemia, the clips were removed in reverse order. Incisions were closed in layers and mechanical ventilation was discontinued. After stable spontaneous respiration was confirmed, mice were extubated.
# The previously described surgical procedures^6 were modified as follows. The respiratory rate during the procedure was increased to 230 breaths/minute, because hyperventilation promotes the occurrence of delayed paraplegia caused by spinal cord ischemia^33. A laser Doppler perfusion monitor (moorVMS-LDF1; Moor Instruments, Millwey, UK) was used to monitor the femoral artery blood flow^28,29. […] To improve the accuracy of surgical procedures, a microscope (Leica MZ95; Leica Microsystems, Buffalo Grove, IL, USA) was used to isolate the aortic arch and place the clips.
# Study drugs were administered intranasally using a single-channel pipettor. Mice were anesthetized with 3% isoflurane using a non-rebreathing circuit with a mouse nose cone (VetEquip, Inc., Livermore, CA, USA). While the drugs were administered, the nose cone was removed and mice were allowed to breathe air. Approximately 6 μL of each drug was administered into the mouse's nostrils and the mouse inhaled the droplets during inspiration. […]
# [2] = test system: MPTP-treated mice; experiment: MPTP-induced Parkinson's disease model in mice (tyrosine hydroxylase immunoblot); assay type: in vivo, mouse; settings: GSSSG 50 mg/kg intranasal on day 0 and every 12 hours days 1-6; harvested 7 days after MPTP
# Procedure: Intermittent H2S Inhalation—Sulfide Pre-Conditioning (SPC) We previously reported that breathing H2S at 80 ppm markedly increases plasma and brain levels of H2S and thiosulfate, an oxidative product of H2S.^50,51 Male C57BL6/J mice breathed air alone and air mixed with 80 ppm H2S (Airgas Inc., Radnor, PA) for 4 h each day for 5 consecutive days in custom-made plastic chambers. The H2S breathing session was performed from 8 AM until 12 PM from Day 1 through Day 5 as previously described^51 (FIG. 1). H2S concentration, as well as FiO2, was continuously measured using a portable gas monitor (VENTIS MX4 Multi-Gas Monitor, Industrial Scientific Corporation, Oakdale. PA).
# Male C57BL6/J and CD-1 mice received four intraperitoneal injections of MPTP (20 mg/kg) or saline every 2 h for a total of four doses of MPTP (total, 80 mg/kg) or equivalent amount of saline, as previously described 3. […] Then, tyrosine hydroxylase protein levels were detected by immunoblotting.
# To determine the effects of polysulfide on the loss of tyrosine hydroxylase in the substantia nigra and striatum in mice treated with MPTP, we administered GSSSG (50 mg/kg) or saline via intranasal route immediately after the first and the third injection of MPTP on Day 0. […] Then, tyrosine hydroxylase protein levels were detected by immunoblotting.
# [3] = test system: SH-SY5Y cells; experiment: Cell viability of SH-SY5Y cells incubated with MPP+ (crystal violet assay); assay type: cell-based, human; settings: MPP+ 5 mM, 24 h; 10 μM each
# Procedure: (§1) Cell viability assays was performed to examine cell viabilities of SH-SY5Y cells or murine primary cortical neurons 24 h after the addition of MPP^+ (5 mM for SH-SY5Y, 50 μM for primary cortical neurons) with vehicle (PBS), Na2S (Sigma-Aldrich), Na2S3 (Dojindo Molecular Technologies, Inc), GSSSG (Glutathione trisulfide, Kyowa Hakko Bio Co., Ltd., Tokyo, Japan), LA (α-Lipoic acid, Sigma-Aldrich) or LASSS (α-Lipoic acid trisulfide, Kyowa Hakko Bio Co., Ltd., Tokyo, Japan). Cell viability was measured using the crystal violet assay.
# [4] = test system: ventral horn of lumbar spinal cord; experiment: Histology of lumbar spinal cord 48 hours after SCI (Nissl, Iba-1, cleaved caspase-3); assay type: in vivo, mouse
# Procedure: The lumbar enlargement of the spinal cord was removed 48 hours after surgery and sectioned to […] thickness using a cryotome (CM1850UV; Leica Biosystems, Heidelberger, Germany). Nissl staining was conducted using the Nissl stain kit (VitroVivo Biotech, Rockville, MD, USA) according to the protocol recommended by the manufacturer. Immunohistochemical staining for ionized calcium-binding adaptor molecule 1 (Iba-1) and cleaved caspase-3 was performed as previously described^6,15. The stained sections were examined using an epifluorescence microscope (Nikon Eclipse 80i; Nikon Instruments, Inc., Melville, NY, USA).
# The number of stained cells was counted in one field (0.26 mm^2) under high magnification (200×) in 3 different sections of spinal cord from each mouse by an investigator who was blinded to the identity of the samples. The average number of stained cells was calculated for each mouse. For quantitative analysis of Iba-1 staining, the Iba-1-positive area per one field (0.26 mm^2) under high magnification (200×) in 3 different ventral horn sections for each mouse was calculated using the ImageJ image-processing program (National Institutes of Health, Bethesda, MD, USA). The mean area of Iba-1 staining in the spinal cords of mice in the sham procedure group was set to 1 and the relative amount of Iba-1 staining was determined for each experimental group of mice. Each group included 5 mice.
# [5] = test system: CCL2, CXCL1, IL-1β, IL-6, TNF-α, Bcl-2, Bcl-XL, SQOR and other sulfide-metabolizing enzymes mRNA; experiment: mRNA levels in lumbar spinal cords 48 hours after surgery (quantitative real-time PCR); assay type: in vivo, mouse; settings: intranasal GSSSG after SCI
# Procedure: Messenger RNA (mRNA) levels were measured as previously described^15 using lumbar spinal cords at 48 hours after surgery. The mRNA levels of C-C motif chemokine 2 (CCL2), C-X-C motif chemokine ligand 1 (CXCL1), interleukin (IL)-1β, IL-6, tumor necrosis factor (TNF)-α, B-cell lymphoma 2 (Bcl-2), B-cell lymphoma-extra large (Bcl-XL), cystathionine beta synthase, cystathionine gamma lyase, 3-mercaptopyruvate sulfurtransferase, sulfide:quinone oxidoreductase (SQOR), ethylmaronic encephalopathy 1, thiosulfate sulfurtransferase, sulfite oxidase, cysteinyl-tRNA synthetase 1, and cysteinyl-tRNA synthetase 2 were standardized to the level of 18S ribosomal RNA using quantitative real-time polymerase chain reaction (7500 Fast Real-Time PCR System, Thermo Fisher Scientific, Waltham, MA, USA).
# [6] = test system: murine primary cortical neurons; experiment: Cell viability of murine primary cortical neurons incubated with MPP+ (crystal violet assay); assay type: cell-based, mouse; settings: MPP+ 50 μM, 24 hours
# Procedure: as §1
smiles,measurement,setting,value
"N[C@@H](CCC(=O)N[C@@H](CSSSC[C@H](NC(=O)CC[C@H](N)C(=O)O)C(=O)NCC(=O)O)C(=O)NCC(=O)O)C(=O)O [GSSSG, glutathione trisulfide]",male mice rescued from delayed paraplegia,"[1]; GSSSG vs GSSG comparison, n=6 per group, intranasal GSSSG 50 mg/kg, GSSG 53 mg/kg",83%
same,mice in which development of delayed paraplegia was prevented,"[1]; male mice, n=11 per group, intranasal at 0, 8, 23, 32 hours after surgery, GSSSG 50 mg/kg, GSH 45.2 mg/kg",73%
same,tyrosine hydroxylase in the nigrostriatal region,[2],prevented the MPTP-induced decrease in tyrosine hydroxylase
same,viability of MPP+-treated SH-SY5Y cells,[3],increased the viability
same,number of cleaved caspase-3-positive neurons in lumbar spinal cord,[4]; intranasal GSSSG,prevented the SCI-induced increase
same,number of viable neurons (Nissl stain) in ventral horns of lumbar spinal cord,"[4]; intranasal GSSSG at 0, 8, 23, 32 hours, vs vehicle alone",significant increase in the number of viable neurons
same,Iba-1-positive staining (microglial activation) in lumbar spinal cord,"[4]; intranasal GSSSG, vs vehicle alone",significant reduction in staining for Iba-1
same,mRNA encoding SQOR in lumbar spinal cord,[5],decreased the level of mRNA encoding SQOR
same,mRNA encoding pro-inflammatory cytokines in lumbar spinal cord,[5],attenuated the upregulation
same,mRNA levels encoding other enzymes that synthesize or metabolize sulfides or persulfides,[5],no effect
same,"mRNA levels of anti-apoptotic genes Bcl-2 and Bcl-XL, vehicle alone vs GSSSG",[5],no significant difference
same,protection of murine primary cortical neurons from the effects of MPP+ treatment,[6],protected
